This note sets out measurements from US8957013B2 (priority 2007, dated 2015).

The format of the experiment is binding.

Turning to HPNFSKYILHQR, the “selectivity for DNT over TNT target” value is on record as “selective for the DNT target”.
